Results as given in ChEMBL document CHEMBL1201862, “PubChem BioAssay data set” (2004).
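Results reflect a 48-hour exposure of cells in 96-well plates to compound at five concentrations. Here, GI50 denotes the concentration required for 50% inhibition of growth.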 Calls of active or inactive are those of the source. Cut-off read from the data, not from the text of the source: active = GI50 up to about 1.1 µM and inactive = higher.

How the values were obtained:
Experiment in all cases: NCI-60 cell line screen, 48 h
CCRF-CEM = system: CCRF-CEM
786-0 = system: 786-0
MDA-N = system: MDA-N
IGROV-1 = system: IGROV-1
RXF 393 = system: RXF 393
MDA-MB-435 = system: MDA-MB-435
UO-31 = system: UO-31
OVCAR-4 = system: OVCAR-4
U-251 = system: U-251
ACHN = system: ACHN
EKVX = system: EKVX
CAKI-1 = system: CAKI-1
SW-620 = system: SW-620
MDA-MB-231 = system: MDA-MB-231
OVCAR-8 = system: OVCAR-8
K562 = system: K562
COLO 205 = system: COLO 205
SR = system: SR

| Structure (SMILES) | GI50 (CCRF-CEM) | GI50 (786-0) | GI50 (MDA-N) | GI50 (IGROV-1) | GI50 (RXF 393) | GI50 (MDA-MB-435) | GI50 (UO-31) | GI50 (OVCAR-4) | GI50 (U-251) | GI50 (ACHN) | GI50 (EKVX) | GI50 (CAKI-1) | GI50 (SW-620) | GI50 (MDA-MB-231) | GI50 (OVCAR-8) | GI50 (K562) | GI50 (COLO 205) | GI50 (SR) |
| --- | --- | --- | --- | --- | --- | --- | --- | --- | --- | --- | --- | --- | --- | --- | --- | --- | --- | --- |
| CC1(C)C=Cc2c(cc(O)c3c(=O)c4cc(Cl)ccc4[nH]c23)O1 | 3.08 µM (inactive) | 3.84 µM (inactive) | 2.62 µM (inactive) | 5.31 µM (inactive) | 3.89 µM (inactive) | 3.35 µM (inactive) | 2.16 µM (inactive) | 3.24 µM (inactive) | 2.74 µM (inactive) | 2.42 µM (inactive) | 0.469 µM (active) | 3.94 µM (inactive) | 3.55 µM (inactive) | 3.33 µM (inactive) | 3.98 µM (inactive) | 1.81 µM (inactive) | 4.43 µM (inactive) | 3.24 µM (inactive) |
| CC(C)=CCc1c(O)c(CC=C(C)C)c2oc3c(c(=O)c2c1O)C(C=C(C)C)Oc1cc(O)ccc1-3 (configuration not stated) | 0.804 µM (active) | 6.98 µM (inactive) | 3.32 µM (inactive) | 7.53 µM (inactive) | 3.12 µM (inactive) | 3.53 µM (inactive) | 4.19 µM (inactive) | 7.14 µM (inactive) | 4.78 µM (inactive) | 4.49 µM (inactive) | 3.88 µM (inactive) | 5.87 µM (inactive) | 4.17 µM (inactive) | 12.4 µM (inactive) | 6.85 µM (inactive) | 3.98 µM (inactive) | 16 µM (inactive) | 2.49 µM (inactive) |
| Oc1ccc(/N=N/c2ccc(Cl)cc2)cc1 | 4.63 µM (inactive) | 17.3 µM (inactive) | 16.9 µM (inactive) | 12.9 µM (inactive) | 15.4 µM (inactive) | 14.9 µM (inactive) | 13.7 µM (inactive) | 14.9 µM (inactive) | 15.4 µM (inactive) | 12.9 µM (inactive) | 17.3 µM (inactive) | 14.4 µM (inactive) | 30.5 µM (inactive) | 10.8 µM (inactive) | 16.6 µM (inactive) | 19.6 µM (inactive) | 18.4 µM (inactive) | 19.5 µM (inactive) |
| CCOP(=O)(OCC)/C(F)=C/c1ccc(F)cc1 | > 100 µM (inactive) | > 100 µM (inactive) | > 100 µM (inactive) | > 100 µM (inactive) | > 100 µM (inactive) | > 100 µM (inactive) | > 100 µM (inactive) | > 100 µM (inactive) | > 100 µM (inactive) | > 100 µM (inactive) | > 100 µM (inactive) | > 100 µM (inactive) | > 100 µM (inactive) | > 100 µM (inactive) | > 100 µM (inactive) | > 100 µM (inactive) | > 100 µM (inactive) | > 100 µM (inactive) |
| N#Cc1c(-c2ccc(Cl)cc2)cc(-c2ccc(Nc3ccnc4cc(Cl)ccc34)cc2)[nH]c1=O | 16 µM (inactive) | 17.6 µM (inactive) | > 100 µM (inactive) | > 100 µM (inactive) | 30.4 µM (inactive) | > 100 µM (inactive) | > 100 µM (inactive) | > 100 µM (inactive) | 15.5 µM (inactive) | 32 µM (inactive) | > 82.2 µM (inactive) | > 100 µM (inactive) | > 100 µM (inactive) | 34.4 µM (inactive) | > 100 µM (inactive) | > 54.5 µM (inactive) | > 100 µM (inactive) | > 52.5 µM (inactive) |
| CCN(CC)CCCNc1ccc([N+](=O)[O-])c2nc3ccccc3c(N)c12 | 0.45 µM (active) | 0.445 µM (active) | 0.492 µM (active) | 0.622 µM (active) | 0.37 µM (active) | 1.06 µM (active) | 1.57 µM (inactive) | 0.627 µM (active) |  | 0.324 µM (active) | 1.01 µM (active) | 4.32 µM (inactive) | 0.365 µM (active) | 0.442 µM (active) | 0.65 µM (active) | 0.478 µM (active) |  | 0.512 µM (active) |
| COc1ccc(C=O)cc1Oc1ccc(C[C@H]2c3c(cc(OC)c4c3Oc3cc5c(cc3O4)CCN(C)C5=O)CCN2C)cc1 | 10 µM (inactive) | 8.61 µM (inactive) | 8.67 µM (inactive) | 7.16 µM (inactive) | 3.59 µM (inactive) | 9.73 µM (inactive) | 7.93 µM (inactive) | 7.93 µM (inactive) | 9.51 µM (inactive) | 8.43 µM (inactive) | 9.4 µM (inactive) | 18.7 µM (inactive) | 12.1 µM (inactive) | 7.6 µM (inactive) | 7.87 µM (inactive) | 6.05 µM (inactive) | 20.8 µM (inactive) | 9.38 µM (inactive) |
| Oc1cc(Br)cc2cc(Br)cnc12 | 1.83 µM (inactive) | 13.8 µM (inactive) | 5.37 µM (inactive) | 1.14 µM (inactive) | 1.6 µM (inactive) | 3.44 µM (inactive) | 2.99 µM (inactive) | 1.39 µM (inactive) |  | 1.48 µM (inactive) | 3.85 µM (inactive) | 8.55 µM (inactive) | 2.24 µM (inactive) | 12.2 µM (inactive) | 2.96 µM (inactive) | 1.21 µM (inactive) | 32.3 µM (inactive) | 1.26 µM (inactive) |
| O=C(c1ccccc1)c1ccc2nc3n(c2c1)C(c1c(F)cccc1F)SC3 (configuration not stated) | 4.76 µM (inactive) | 4.2 µM (inactive) | 1.34 µM (inactive) | 5.05 µM (inactive) | 13.2 µM (inactive) | 1.45 µM (inactive) | 5.4 µM (inactive) | 7.8 µM (inactive) | 6.67 µM (inactive) | 3.85 µM (inactive) | 3.56 µM (inactive) | 5.13 µM (inactive) | 3.18 µM (inactive) | 12.9 µM (inactive) | 9.33 µM (inactive) | 3.31 µM (inactive) | 4 µM (inactive) | 0.847 µM (active) |
| CCN1CCC(O)(c2ccc(Oc3ccc(F)cc3)cc2)C(C(=O)c2ccc(Oc3ccc(F)cc3)cc2)C1 (configuration not stated) | 10.1 µM (inactive) | 11.6 µM (inactive) | 16.9 µM (inactive) | 11 µM (inactive) | 12.2 µM (inactive) | 16.8 µM (inactive) |  | 15 µM (inactive) | 16.2 µM (inactive) | 13.8 µM (inactive) | 16.6 µM (inactive) | 13 µM (inactive) | 15.6 µM (inactive) | 13.2 µM (inactive) | 15 µM (inactive) | 12.7 µM (inactive) | 16.6 µM (inactive) | 2.33 µM (inactive) |
| CC1C(c2ccccc2)OP(=O)(OC(C#N)c2ccccc2)N1C (configuration not stated) | 29.2 µM (inactive) | > 100 µM (inactive) | > 100 µM (inactive) | > 100 µM (inactive) | > 100 µM (inactive) | 81.1 µM (inactive) | 97.3 µM (inactive) |  | 67.9 µM (inactive) | > 100 µM (inactive) | > 100 µM (inactive) | > 100 µM (inactive) | 97.9 µM (inactive) | > 100 µM (inactive) | > 100 µM (inactive) | 39.3 µM (inactive) | > 100 µM (inactive) | 91.4 µM (inactive) |
| CC(C)=CC(=O)O[C@@H]1CC(C)(C)CC2C3=CCC4[C@]56CC[C@](O)(OC5)C(C)(C)C6CC[C@@]4(C)C3(C)CC[C@]21C(=O)O (some centres not stated) | 41.7 µM (inactive) | 69.8 µM (inactive) | > 100 µM (inactive) | 31.8 µM (inactive) | > 100 µM (inactive) | > 100 µM (inactive) |  | 63.2 µM (inactive) | 32.9 µM (inactive) | 25.8 µM (inactive) | > 100 µM (inactive) | > 100 µM (inactive) | > 100 µM (inactive) | > 100 µM (inactive) | 59.6 µM (inactive) | 48 µM (inactive) | 22.8 µM (inactive) | 61 µM (inactive) |
| CC(=O)OCC(OC(C)=O)C(OC(C)=O)C(OC(C)=O)C(/C=N\Nc1nc2ccccc2c(=O)[nH]1)=N/Nc1nc2ccccc2c(=O)[nH]1 (configuration not stated) | > 100 µM (inactive) | > 100 µM (inactive) | > 100 µM (inactive) |  | > 100 µM (inactive) | > 100 µM (inactive) | > 100 µM (inactive) |  | > 100 µM (inactive) | > 100 µM (inactive) | > 100 µM (inactive) | > 100 µM (inactive) | > 100 µM (inactive) | > 100 µM (inactive) | > 100 µM (inactive) | > 100 µM (inactive) | > 100 µM (inactive) | > 100 µM (inactive) |
| N=C(N)NCCCC(NC(=O)OCCCCn1ccc(N)nc1=O)C(=O)O (configuration not stated) | > 100 µM (inactive) | > 100 µM (inactive) | > 100 µM (inactive) | > 100 µM (inactive) | > 100 µM (inactive) | > 100 µM (inactive) | > 100 µM (inactive) | > 100 µM (inactive) | > 100 µM (inactive) | > 100 µM (inactive) | > 100 µM (inactive) | > 100 µM (inactive) | > 100 µM (inactive) | > 100 µM (inactive) |  | > 100 µM (inactive) | > 100 µM (inactive) | > 100 µM (inactive) |
| CCOC(=O)C(CC#Cc1ccc(C#CCC(NC(C)=O)C(=O)OCC)cc1)NC(C)=O (configuration not stated) | > 100 µM (inactive) | > 100 µM (inactive) | > 100 µM (inactive) | > 100 µM (inactive) | > 100 µM (inactive) | > 100 µM (inactive) | > 100 µM (inactive) | > 100 µM (inactive) |  | > 100 µM (inactive) | > 100 µM (inactive) | > 100 µM (inactive) | > 100 µM (inactive) | > 100 µM (inactive) | > 100 µM (inactive) | > 100 µM (inactive) | > 100 µM (inactive) | > 100 µM (inactive) |
| CN1CCN(c2ncc3c(n2)sc2c(=O)n(-c4ccccc4)cnc23)CC1 | > 100 µM (inactive) | > 100 µM (inactive) | > 100 µM (inactive) | > 100 µM (inactive) | > 100 µM (inactive) | > 100 µM (inactive) | > 100 µM (inactive) | > 100 µM (inactive) | > 100 µM (inactive) | > 100 µM (inactive) |  | > 100 µM (inactive) | > 100 µM (inactive) | > 100 µM (inactive) | > 100 µM (inactive) | > 100 µM (inactive) | > 100 µM (inactive) | > 100 µM (inactive) |
